Values quoted from earlier work, collected in patent publication US10773080B2, “External trigeminal nerve stimulation for the acute non-invasive treatment of migraine attacks” (Cefaly Technology Sprl, priority 2017, dated 2020).

Tests used:
migraine [1] = details: in vivo
migraine [2] = details: literature data; for Pain freedom at 2 h: percentage of patients

Compound	Mean pain score reductions at two hours (migraine [1]) [%]	Reduction in mean pain VAS scores at one hour (migraine [1]) [%]	Nausea freedom at 2 h (migraine [2]; irrespective of MBS) [%]	Phonophobia freedom at 2 h (migraine [2]; irrespective of MBS) [%]	Photophobia freedom at 2 h (migraine [2]; irrespective of MBS) [%]	Vomiting freedom at 2 h (migraine [2]; irrespective of MBS) [%]	At least one treatment-emergent adverse effect (migraine [2]) [%]	Pain relief at 2 h (migraine [2]) [%]	Use of rescue medication between 2 h and 24 h (migraine [2]) [%]	Pain freedom at 2 h (migraine [2]) [%]	Sustained pain freedom at 24 h (migraine [2]) [%]
O=C(O)Cc1ccccc1Nc1c(Cl)cccc1Cl [diclofenac]	50.5	26.8									
CN1CCC(C(=O)c2cccc(NC(=O)c3c(F)cc(F)cc3F)n2)CC1 [[B], Lasmiditan]			~26	~30	~38	~5	84	65	42	28	
C[C@@H]1[C@H](c2ccccc2)C[C@H](NC(=O)c2cnc3c(c2)C[C@@]2(C3)C(=O)Nc3ncccc32)C(=O)N1CC(F)(F)F [[F], Ubrogepant]			70.6	60.8	54.9		29.4	58.8		25.5	21.6
CNS(=O)(=O)Cc1ccc2[nH]cc(CCN(C)C)c2c1 [sumatriptan]	40.0	17.1									
